# Measurements taken from US20240117431A1, “STEM-CELL BASED BIOMARKER DISCOVERY” (THE REGENTS OF THE UNIVERSITY OF CALIFORNIA, priority 2020, published 2024).
# “Also recorded” adds a separate entry of the source.
# What was measured:
# [1] = target: T1, uracil monophosphate synthetase (UMPS) overexpressed in HEK cells (Homo sapiens, UniProt P11172); assay: RNA incorporation with overexpression of UMPS, dot blot; format: cell-based; conditions: 1 mM, 24 hours, FIG. 12
# T1 construct: expressed in transfected cells; host or cells: HEK cells
# T1 sequence (P11172 1-480): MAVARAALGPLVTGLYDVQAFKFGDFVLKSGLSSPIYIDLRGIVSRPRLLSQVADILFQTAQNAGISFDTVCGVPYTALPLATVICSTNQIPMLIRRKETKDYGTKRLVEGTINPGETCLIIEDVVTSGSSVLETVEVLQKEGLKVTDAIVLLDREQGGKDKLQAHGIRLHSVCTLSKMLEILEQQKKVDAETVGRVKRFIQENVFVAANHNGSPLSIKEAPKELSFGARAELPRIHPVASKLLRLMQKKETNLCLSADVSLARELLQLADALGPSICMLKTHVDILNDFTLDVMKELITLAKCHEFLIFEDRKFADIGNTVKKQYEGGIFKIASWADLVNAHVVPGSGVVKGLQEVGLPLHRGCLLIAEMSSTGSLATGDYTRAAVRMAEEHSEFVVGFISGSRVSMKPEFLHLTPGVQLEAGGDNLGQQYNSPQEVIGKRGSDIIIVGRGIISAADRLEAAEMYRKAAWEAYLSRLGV
# Experimental: Analogs were incubated for 24 hours at 1 mM concentration in HEK cells. RNA was extracted and biotinylated using MTSEA-Biotin, followed by dot-blot analysis. Strep-HRP=Streptavidin conjugated Horseradish peroxidase. MeBI=methylene blue staining serving as loading control.
# [2] = target: T2, wild-type (WT) TgUPRT in HEK cells (Toxoplasma gondii, UniProt Q26998); assay: In-cell RNA incorporation by wild-type TgUPRT, streptavidin dot blot; format: cell-based; conditions: wild-type TgUPRT active site
# T2 construct: 6xHis; expressed in transfected cells; host or cells: HEK293 (HEK293T)
# Experimental: (§1) Transfection, labeling of cellular RNA and RNA isolation: After 48h seeding, HEK293 cells were transfected with 2.5 μg of TgUPRT WT or mutant plasmids (pKN-CMV-TgUPRT-WT or -Mutt to Mut17) per 5 cm plate using JetPrime Transfection reagent (Polyplus Transfection, France). At 40h post-transfection, cells were incubated with a final concentration of 200 μM at <1% DMSO from 400 mM stock of uracil analogs (5EU, 5VU, 5AU) or 200 mM SAMU stock for 5 h. For time course study, HEK cells were treated with 200 μM uracil analogs for 0 h, 0.5, 1, 3, 5, 12 and 24 hours. For titrating uracil analog concentration experiments, HEK cells were treated with 0 (DMSO), 50, 100, 200, 500 μM or 1 mM uracil analog for 5h. Treated HEK cells were subjected to total RNA extraction using 1 mL Trizol Reagent (Invitrogen) following the manufacturer instructions.
# (§2) Biotinylation via CuAAC and IEDDA: Cu-mediated Azide-Alkyne cycloaddition (CuAAC) click reactions were performed in 50 μL reaction at 22° C. on a shaker for 30 min with click reaction cocktail containing 15 μg of total RNA, 1 mM biotin alkyne or biotin azide, fresh 4.6 mM THPTA to a final concentration of 1 mM, and fresh 10.6 mM sodium ascorbate (NaAsc) at final concentration of 1.77 mM, and 12 mM CuSO4 at final concentration of 200 μM in biotinylation reaction buffer (10 mM TrisHCI, 1 mM EDTA, pH7.4). The biotinylated RNA was purified using RNA clean & Concentrator-5 kit (Zymo Research, Cat #R1013) according to the manufacturer instructions and eluted in 21 μL of nuclease free water.
# (§3) Inverse electron demand [4+2] Diels-Alder cycloaddition (IEDDA) click reactions were performed in 50 μL at 37° C. or 22° C. (RT) for 3h on mixer at 500 rpm containing 10-15 μg of total RNA, 1 mM final concentration of biotin-benzyl tetrazine (Sigma Aldrich, Cat #793329-5MG) in nuclease free water. Clicked total RNA was purified using RNA clean & Concentrator-5 kit (Zymo Research, Cat #R1013) according to the manufacturer instructions, and RNA was eluted in 21 μL of nuclease free water.
# HRP-streptavidin dot blot analysis: All gel reagents were from Bio-Rad. […]
# UPRT(+)-microglia brains = assay: In vivo labeling of brain RNA in mice transplanted with UPRT-expressing human microglia, biotin dot blot; conditions: IP close to 150 mg/kg, 24-48 hours, FIG. 14
# Experimental: 5-vinyl-uracil (Alfa Aesar #4437903) was prepared in sterile conditions at 4 times the concentration in 100% DMSO, then diluted to 25% DMSO by adding corn oil to a final concentration of 500 mM. The mixture was heated to 37° C. for […] until homogenous. Mice are weighed before intraperitoneal injection (IP) injection to ensure close to 150 mg/kg are injected per treatment. For an (˜20 g) adult mouse typically 60-70 μl are IP injected per treatment. Mice are monitored for signs of distress. After 24-48 hours of treatment, mice were sacrificed and brains were immediately placed into 2 ml of RNAlater and left in 4° C. for 3-5 days. After removing brains from RNAlater, they were homogenized with RNAse-free 1.4 mm steel beads (Next Advance SSB14B-RNA) for 60 seconds and centrifuged at 4° C. for 5 min, maximum speed to separate the fatty layer. The bottom layer is collected, homogenized with 200 ul chloroform and centrifuged for 20 minutes, at 4° C. The aqueous layer is collected and 500 ul isopropanol added. After centrifugation for 30 minutes 4° C., the RNA pellet is washed in 70% Ethanol twice. After removing ethanol, the RNA pellet is resuspended in nuclease-free water and nanodrop to determine the concentration. From each sample, 15 μg of RNA was subjected in tetrazine-biotin ligation at 37° C., 500 RPM for 3 hours. The biotinylated RNA was purified with RNA Zymo Clean and Concentrator #5 and eluted with nuclease-free water. 2 μg of purified RNA was spotted onto a N+ Hybond membrane and UV-crosslinked at 254 nm (120,000 uJ). Membrane is blocked in blocking buffer (0.12 M NaCl, 0.016 M Na2HPO4, 0.008 M NaH2PO4, 0.17 M SDS) and followed by incubation with high sensitivity streptavidin-HRP (Fisher Scientific, Cat #: P121130) at 1:5000 dilution in blocking buffer for 5 minutes. The membrane was washed twice in a Wash A buffer (1:10 dilution of blocking buffer) and twice in Wash B buffer (Tris-saline buffer). It was then incubated for 1-5 min. in ECL Chemiluminescent Substrate (Fisher Scientific, Cat #: P132106) and imaged on a ChemiDoc MP imaging system (Bio-Rad). […]
# mutants TgUPRT = assay: Phosphoribosyltransferase activity with recombinant TgUPRT mutants; format: biochemical, Toxoplasma gondii; conditions: five recombinant TgUPRT mutants, FIG. 9A
# Experimental: Enzyme activity assay: The standard activity assay was performed by incubating 10 μL of free extract or 0.5 μg of pure His-tag enzyme with 1 mM Phosphoribosyl pyrophosphate (PRPP), 1 mM uracil, 5 mM MgCl2 in 50 mM PBS buffer pH 7.4 in a final volume of 80 μL. The reaction mixture was incubated at 37° C. for 2-5 min (300 rpm). Enzyme was inactivated by adding 80 μL of cold methanol in ice-bath and heating for 5 min at 100° C. After centrifugation at 9000×g for 5 min, samples were half-diluted with water and the NMP production was analysed by HPLC to quantitatively measure the reaction products as described below in the analytical methods. All determinations were carried out in triplicate assuming Michaelis-Menten conditions, and the maximum error was below 5%. In such conditions, one international activity unit (IU) was defined as the amount of enzyme producing 1 μmol/min of UMP under the assay conditions.
# Substrate specificity studies Enzymatic synthesis of the different pyrimidine nucleoside monophosphate (NMP) derivatives was carried out by incubating 0.5 μg of pure His-tag enzyme with 1 mM PRPP, 1 mM pyrimidine base and 5 mM MgCl2 in 50 mM PBS buffer pH 7.4 (1.6-3.2% v/v DSMO). The experiments were performed according to the standard assay. Subsequently, the reaction mixture was processed as described above and the NMP production was analyzed by HPLC.
# Analytical methods: The production of NMPs was quantitatively measured with an ACE EXCEL 5 μm CN-ES 250×4.6 mm equilibrated with 100% trimethyl ammonium acetate at a flow rate of 0.8 mL/min. Retention times for the reference bases and NMPs (hereafter abbreviated according to the recommendations of the IUPAC-IUB Commission on Biochemical Nomenclature) were as follows: uracil (Ura), 4.7 min; 5-azido uracil (5-AUra). […]
# Following these exciting observations, a more quantitative approach to examined for differences between enzyme mutants and their enzyme kinetics with the analogs. […] Each purified enzyme was incubated with the different substrates and phosphoribosyltransferase activity was measured (FIG. 9A).
# (−)TgUPRT HEK cells = assay: Background incorporation of uracil analogs into RNA, streptavidin-HRP dot blot; format: cell-based; conditions: 1 mM, mimics in vivo applications, FIG. 4
# Experimental: as §1, §2, §3
# HRP-streptavidin dot blot analysis: All gel reagents were from Bio-Rad. For dot blot analysis, 2 μg of clicked total RNA was applied onto Hybond-N+ membrane (GE Healthcare) as individual dots and UV-crosslinked (254 nm) to a membrane (Stratalinker UV crosslinker). Membranes were blocked in blocking buffer (0.12 M NaCl, 0.016 M Na2HPO4, 0.008 M NaH2PO4, 0.17 M SDS) and followed by incubation with high sensitivity streptavidin-HRP (Fisher Scientific, Cat #: P121130) at 1:5000 dilution in blocking buffer for 5 minutes. The membrane was washed twice in a Wash A buffer (1:10 dilution of blocking buffer) and twice in Wash B buffer (Tris-saline buffer). […]
# T2 sequence (Q26998 whole entry): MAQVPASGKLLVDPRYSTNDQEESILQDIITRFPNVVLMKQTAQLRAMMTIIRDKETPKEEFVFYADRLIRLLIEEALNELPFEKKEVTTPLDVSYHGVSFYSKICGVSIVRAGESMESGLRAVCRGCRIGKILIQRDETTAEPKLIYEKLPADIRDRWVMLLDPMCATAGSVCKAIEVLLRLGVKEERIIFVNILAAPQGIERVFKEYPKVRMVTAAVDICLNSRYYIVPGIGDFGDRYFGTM
compound,measurement,setting,value
"O=c1[nH]ccc(=S)[nH]1 [4-thiouracil, reference compound]",incorporation into cellular RNA with UMPS overexpression,[1],higher amount
same,TgUPRT-dependent incorporation into cellular RNA,[2],has the ability to be incorporated into cellular RNA
"O=c1[nH]c(=S)ccn1[C@@H]1O[C@H](CO)[C@@H](O)[C@H]1O [4-thiouridine, reference compound]",incorporation into cellular RNA with UMPS overexpression,[1],incorporation
"C=Cc1cn([C@@H]2O[C@H](CO)[C@@H](O)[C@H]2O)c(=O)[nH]c1=O [5-vinyluridine, reference compound]","incorporation into brain RNA, UPRT(+)-microglia transplanted",UPRT(+)-microglia brains,incorporated into brain RNA; also recorded: incorporation
"O=c1cc[nH]c(=O)[nH]1 [Uracil, uracil, reference compound]",reactivity with the mutants (phosphoribosyltransferase activity),mutants TgUPRT,reactivity of uracil for all five mutants was observed
"[N-]=[N+]=Nc1c[nH]c(=O)[nH]c1=O [compound 4, 5-Azidopyrimidine-2,4(1H,3H)-dione]",incorporation into RNA at higher concentration,(−)TgUPRT HEK cells,higher incorporation
